Source: US20070043036A1, “2-Pyridone derivatives as neutrophil elastase inhibitors and their use” (priority 2003, published 2007)

Target: T1, Human Neutrophil Elastase (HNE) (Homo sapiens, UniProt P08246)
T1 construct: Human Neutrophil Elastase (HNE) purified from serum; purchased Calbiochem 324681; host or cells: natural source; printed as 'purified from serum'
T1 sequence (P08246 30-247 limits assumed): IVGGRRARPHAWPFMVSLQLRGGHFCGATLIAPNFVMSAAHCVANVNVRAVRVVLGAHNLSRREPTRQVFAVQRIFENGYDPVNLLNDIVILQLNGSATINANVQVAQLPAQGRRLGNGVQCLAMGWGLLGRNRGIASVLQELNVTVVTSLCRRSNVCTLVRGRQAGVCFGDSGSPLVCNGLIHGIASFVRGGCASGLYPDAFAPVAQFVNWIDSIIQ
Assay: Human Neutrophil Elastase Quenched-FRET Assay
Assay type: biochemical
Settings: HNE purified from serum; substrate MeOSuc-AAPV-AMC; 15 min pre-incubation, 30 min incubation at room temperature; read-out: Inhibition of Human Neutrophil Elastase IC50
Experimental: Human Neutrophil Elastase Quenched-FRET Assay
The assay uses Human Neutrophil Elastase (HNE) purified from serum (Calbiochem art. 324681; Ref. Baugh, R. J. et al., 1976, Biochemistry. 15, 836-841). HNE was stored in as 50 mM NaOAc, 200 mM NaCl, pH 5.5 with added 30% glycerol at −20° C. The protease substrate used was Elastase Substrate V Fluorogenic, MeOSuc-AAPV-AMC (Calbiochem art. 324740; Ref. Castillo, M. J. et al., 1979, Anal. Biochem. 99, 53-64). The substrate was stored in DMSO at −20° C. The assay additions were as follows: Test compounds and controls were added to black 96-well flat-bottom plates (Greiner 655076), 1 μL in 100% DMSO, followed by 30 μL HNE in assay buffer with 0.01% TritonX-100. The assay buffer constitution was: 100 mM Tris (pH 7.5) and 500 mM NaCl. The enzyme and the compounds were incubated at room temperature for 15 minutes. Then 30 μl substrate in assay buffer was added. The assay was stopped after 30 minutes incubation at room temperature by adding 60 μl stop solution (140 mM acetic acid, 200 mM sodium monochloroacetate, 60 mM sodium acetate, pH 4.3). Fluorescence was measured on a Wallac 1420 Victor 2 instrument at settings: Excitation 380 nm, Emission 460 nm. IC50 values were determined using Xlfit curve fitting using model 205.

Row | SMILES | IC50
1 | Cc1c(CCc2cccnc2)cc(C(=O)NCc2ccc(S(C)(=O)=O)cc2)c(=O)n1-c1cccc(C(F)(F)F)c1 [Example 8, 6-Methyl-N-[4-(methylsulfonyl)benzyl]-2-oxo-5-(2-pyridin-3-ylethyl)-1-[3-(trifluoromethyl)phenyl]-1,2-dihydropyridine-3-carboxamide] | 83 nM
2 | Cc1c(CNCC2CC2)cc(C(=O)NCc2ccc(S(C)(=O)=O)cc2)c(=O)n1-c1cccc(C(F)(F)F)c1 [Example 58, 5-{[(Cyclopropylmethyl)amino]methyl}-6-methyl-N-[4-(methylsulfonyl)benzyl]-2-oxo-1-[3-(trifluoromethyl)phenyl]-1,2-dihydropyridine-3-carboxamide] | 51 nM

Second part, the compound after the results:

Row | IC50 | SMILES
3 | 48 nM | CCCN(C)C(=O)c1cc(C(=O)NCc2ccc(S(C)(=O)=O)cc2)c(=O)n(-c2cccc(C(F)(F)F)c2)c1C [Example 16, 6-Methyl-2-oxo-1-(3-trifluoromethyl-phenyl)-1,2-dihydro-pyridine-3,5-dicarboxylic acid 3-(4-methanesulfonyl-benzylamide)5-(methyl-propyl-amide)]
4 | 99 nM | Cc1c(C(=O)N2CCC[C@@H]2CO)cc(C(=O)NCc2ccc(S(C)(=O)=O)cc2)c(=O)n1-c1cccc(C(F)(F)F)c1 [Example 19, 5-((2R)-2-Hydroxymethyl-pyrrolidine-1-carbonyl)-6-methyl-2-oxo-1-(3-trifluoromethyl-phenyl)-1,2-dihydro-pyridine-3-carboxylic acid 3-(4-methanesulfonyl-benzylamide)]
5 | 22 nM | Cc1c(OCCO)cc(C(=O)NCc2ccc(S(C)(=O)=O)cc2)c(=O)n1-c1cccc(C(F)(F)F)c1 [Example 66, 5-(2-Hydroxyethoxy)-6-methyl-N-[4-(methylsulfonyl)benzyl]-2-oxo-1-[3-(trifluoromethyl)phenyl]-1,2-dihydropyridine-3-carboxamide]
